Here are results for three compounds from patent publication US12419950B2, “Saponin-based vaccine adjuvants” (THE UAB RESEARCH FOUNDATION, priority 2019, dated 2025).

In assay [1] the test system is antibody responses to chicken egg ovalbumin (OVA). As to the kind of experiment: Serum IgG, IgG1 and IgG2a anti-OVA response (ELISA) in mice immunized s.c. with OVA plus adjuvant. It is filed as in vivo, BALB/c mice. On the set-up: IgG2a, serum IgG subclass anti-OVA activity at week 6: unit not given here. The note with it: for IgG1, serum IgG subclass anti-OVA activity at week 6 / IgG2a, serum IgG subclass anti-OVA activity at week 6: OVA 20 μg + adjuvant 100 μg s.c. days 0, 14, 28; for IgG1, serum IgG subclass anti-OVA activity at week 6 / IgG2a, serum IgG subclass anti-OVA activity at week 6 / IgG2a/IgG1, anti-OVA at week 6: mean ± SEM; for IgG2a/IgG1, anti-OVA at week 6: OVA 20 μg + adjuvant 100 μg s.c.; for IgG2a anti-OVA response in words / serum IgG anti-OVA response compared with OVA alone: study of saponins 3-6; for serum IgG anti-OVA response compared with OVA alone: weeks 2, 4, 6. The method, then: With pure natural saponins 3 and 4, and their derivatives 5 and 6 (FIG. 7) available, their ability to potentiate antibody responses to chicken egg ovalbumin (OVA) was evaluated. The known saponin adjuvant GPI-0100 was used as a positive control. Thus, groups of female BALB/c mice (8-10 weeks of age, six per group) were immunized by the subcutaneous route (s.c.) with OVA (20 μg) alone or with GPI-0100, saponins 3-6 at 100 μg dose on days 0, 14 and 28. Mice were weighed and serum samples were collected prior to each immunization and at 6 weeks after the initial immunization. The levels of serum IgG antibody activity to OVA were determined by enzyme-linked immunosorbent assay (ELISA), as shown in FIGS. 6A-6C, 9A-9C, and Table 1.
Their ability to potentiate antibody responses to chicken egg ovalbumin (OVA) was then evaluated. The known saponin adjuvant GPI-0100 was one of the positive controls. Also used was the recently reported MS derivative VSA-1 (4a) as the other positive control. Its high IgG1/IgG2a production and low toxicity are similar to that of GPI-0100. Thus, groups of female BALB/c mice (8-10 weeks of age, six per group) were immunized by the subcutaneous route (s.c.) with OVA (20 μg) alone or with GPI-0100, or a MS saponin derivative at 100 μg dose on days 0, 14 and 28. Mice were weighed and serum samples were collected prior to each immunization and at 2 weeks following the last immunization. The levels of serum antibody activity to OVA were determined by enzyme-linked immunosorbent assay (ELISA).
BALB/c mice used in this study were from Frederick Cancer Research (Fredrick, MD). To assess the adjuvant activity of the MS saponin-based immune adjuvants, groups of female mice (8-10 weeks of age; 6 mice per group) were immunized by the subcutaneous (s.c.) route with OVA (20 μg) or rHagB (35 μg) alone, or with antigen plus proper adjuvant such as GPI-0100 (100 μg) or a MS adjuvant (100 μg) on days 0, 14 and 28. Prior to each immunization and at two weeks post last immunization, mice were weighed and blood samples were collected from the lateral tail vein by using heparinized capillary pipettes. The serum was obtained after centrifugation and stored at −20° C. until assayed.
The levels of specific serum IgG and IgG subclasses against OVA or rHagB in each group were determined by an enzyme-linked immunosorbent assay (ELISA). Maxisorpmicrotiter plates (NUNC International, Roskilde, DK) were coated with rHagB (1 μg/ml), OVA (0.1 μg/ml), or with optimal amounts of goat anti-mouse IgG, IgG1 or IgG2a in borate buffer saline (BBS; 100 mM NaCl, 50 mM boric acid, 1.2 mM Na2B4O7, pH 8.2) at 4° C. overnight. Plates were blocked with 1% bovine serum albumin (BSA) and 0.02% sodium azide in BBS for 2 h at room temperature. Serial two-fold dilutions of serum samples were added in duplicate to the plates. To generate standard curves, serial dilutions of a mouse immunoglobulin reference serum (MP Biomedicals, Solon, OH) were added to two rows of wells in each plate that had been coated with the appropriate anti-mouse IgG or IgG subclass reagent. After incubation (overnight at 4° C.) and washing of the plates, horseradish peroxidase-conjugated goat anti-mouse IgG or IgG subclass antibody was added to appropriate wells. After 4 h of incubation at room temperature, plates were washed and developed by o-phenylenediamine substrate with hydrogen peroxide. Color development was recorded at 490 nm. The concentrations of antibodies were determined by interpolation on standard curves generated by using the mouse immunoglobulin reference serum and constructed by a computer program based on four-parameter logistic algorithms (Softmax/Molecular Devices Corp., Menlo Park, CA).
Statistical significance in antibody responses was evaluated by t tests (with unpaired, nonparametric and Mann-Whiteny test) using GraphPad Prism 8. Differences were considered significant at a P value<0.05.
Background: In an ELISA, binding on a coated surface is turned into a signal by an enzyme label.

Assay [2] relates to serum Ab titers. Conditions: in vivo; cited from earlier work.

Marks after values point to notes of the source that are not given here. Some results are limits rather than exact numbers.

For the compound Momordica saponins II [compound 4], in assay [1], the IgG1, serum IgG subclass anti-OVA activity at week 6 is 262 ± 37 µg/mL; the “IgG2a, serum IgG subclass anti-OVA activity at week 6” value amounted to 0.1; the “IgG2a/IgG1, anti-OVA at week 6” value was <0.001**; the “IgG2a anti-OVA response in words” value is on record as “negligible IgG2a responses”. Moreover, the “serum IgG anti-OVA response compared with OVA alone” value in assay [1] was “significant difference in IgG responses from the OVA group at weeks 2 (P<0.01) and 4 (P<0.001) but not at week 6”.

As to `CC1OC(OC2C(O)C(C(=O)O)OC(OC3CCC4(C)C(CCC5(C)C4CC=C4C6CC(C)(C)CCC6(C(=O)OC6OC(C)C(O)C(O)C6OC6OC(C)C(OC7OCC(O)C(O)C7O)C(OC7OC(CO)C(O)C(OC8OCC(O)C(O)C8O)C7O)C6O)CCC45C)C3(C)C=O)C2OC2OC(CO)C(O)C(O)C2O)C(O)C(O)C1O` (centres unmarked) [compound 3, Momordica saponin I], in assay [1], the IgG1, serum IgG subclass anti-OVA activity at week 6 is 233 ± 74 µg/mL; the “IgG2a, serum IgG subclass anti-OVA activity at week 6” value came out at 0.2; the “IgG2a/IgG1, anti-OVA at week 6” value is listed as <0.001**; the “IgG2a anti-OVA response in words” value is on record as “negligible IgG2a responses”. The “serum IgG anti-OVA response compared with OVA alone” value in assay [1] is “did not show significant difference in IgG responses from the OVA group”.

For the compound monophosphoryl lipid A [MPL], the “boost of serum Ab titers compared to vaccine alone” value in assay [2] was 10-20 fold.
